Laboratory results published in ChEMBL document CHEMBL1201862, “PubChem BioAssay data set” (2004).
Where “and” joins values, the source holds several entries; their conditions need not be identical. Equal values may be shown once. Calls of active or inactive are those of the source.

Key:
HEK293 [1] = assay: viability loss in HEK293T cells – cell-based, ATP luminescence, cherry-pick samples, cytotoxicity control, dose response (AID 687005); format: functional; conditions: Homo sapiens;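 note: cells exposed to compound for 48 hours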
[2] = HEK293 Cytotoxicity Assay Measured in Cell-Based System Using Plate Reader - 7071-01_Inhibitor_Dose_CherryPick_Activity_Set2.; format: functional
[3] = OVCAR8 cell viability loss – plate reader, dry powder samples, PAX8 project, dose response (AID 743197); format: functional, cell-based; conditions: OVCAR-8
Paired box protein Pax-8 = Paired box protein Pax-8 (Homo sapiens, UniProt Q06710); assay: PAX8 transcriptional activity inhibition in RMG-I – RMG-I cells, luciferase, cherry-pick, dose response (AID 687027); format: functional, cell-based;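 note: luciferase reporter driven by Pax8 target thyroperoxidase promoter measured by SteadyGlo luminescence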
[4] = OVCAR-3 cell viability loss – plate reader, dry powder samples, PAX8 inhibitor project, dose response (AID 743044); format: functional, cell-based
[5] = CMV-driven luciferase expression suppression in HEK293 – cell-based, luminescence, dry powder, counter-screen for Pax8 inhibitor project, dose response (AID 743020); format: functional
[6] = target: NAD-dependent protein deacylase sirtuin-5, mitochondrial (Homo sapiens, UniProt Q9NXA8); assay: sirtuin-5 deacylation blockers, concentration series – biochemical, fluorescence imaging, cherry-pick, set 5, dose response (AID 720591);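 note: desuccinylation of succinyl peptide AMC substrate read as fluorescence after trypsin release; potency of inhibitors that lower fluorescence and may act on trypsin instead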
[7] = target: Heat shock protein HSP 90-alpha (Homo sapiens, UniProt P07900); assay: Luminescence-based dose response biochemical high throughput screening assay for inhibitors of the Heat Shock Protein 90 (HSP90). [Related pubchem assays: 1831 (Summary AID.), 1846 (Confirmation screen.), 1789 (Primary screen.)]
Vero = assay: cells; format: functional; conditions: Chlorocebus sabaeus
[8] = Late stage assay provider results from the probe development effort to identify selective inhibitors of heat shock protein 90 (HSP90): Absorbance-based cell proliferation assay in MCF7 cells.; format: functional
[9] = Late stage assay provider results from the probe development effort to identify selective inhibitors of heat shock protein 90 (HSP90): Absorbance-based cell proliferation assay in SKBR3 cells.; format: functional; conditions: SK-BR-3
[10] = Luminescence Cell-Based Dose Response HTS to Identify Activators of 5'UTR Stem-Loop Driven Prion Protein mRNA Translation in H4-C Neuroglioblastoma Cells. [Related pubchem assays: 1829 (Project Summary), 1814 (Primary HTS)]; format: functional
[11] = Luminescence Cell-Based Dose Response HTS to Identify Activators of Luciferase Translation or Activity in H4-C Neuroglioblastoma Cells. [Related pubchem assays: 1829 (Project Summary), 1814 (Primary HTS)]; format: functional
H4 = assay: Luminescence Cell-Based Dose Response HTS to Identify Activators of 5'UTR Stem-Loop Driven Prion Protein mRNA Translation in H4 Neuroglioblastoma Cells. [Related pubchem assays: 1829 (Project Summary), 1814 (Primary HTS)]; format: functional; conditions: Homo sapiens
[12] = Luminescence Cell-Based Dose Retest to Confirm Activators of 5'UTR Stem-Loop Driven Alpha-Synuclein mRNA Translation in H4 Neuroglioblastoma Cells. [Related pubchem assays (depositor defined):AID1813, AID1829]; format: functional
[13] = Luminescence Cell-Based Dose Response HTS to Identify Activators of Luciferase Translation or Activity in H4 […] Cells. [Related pubchem assays: 1829 (Project Summary), 1814 (Primary HTS)]; format: functional
[14] = viability loss in HepG2 hepatoma cells – cell-based, cherry-picks, set 5, cytotoxicity control, dose response (AID 1053118); format: functional
[15] = Luminescence Cell-Based Dose Confirmation HTS to Identify Activators of 5'UTR Stem-Loop Driven Alpha-Synuclein mRNA Translation in H4 Neuroglioblastoma Cells. [Related pubchem assays: 1829 (Project Summary), 1814 (Primary HTS)]; format: functional
[16] = YAP1 overexpression rescue of CTGF inhibition – DLD1 cells, RT-qPCR, cherry-pick, mechanism study for YAP1 pathway inhibitor project, dose response (AID 1053127); format: functional, cell-based; conditions: DLD-1
[17] = target: 1-phosphatidylinositol 4,5-bisphosphate phosphodiesterase beta-3 (Homo sapiens, UniProt Q01970); assay: Fluorescence-based biochemical high throughput dose response assay to identify inhibitors of phospholipase C isozymes (PLC-B3).
[18] = target: 1-phosphatidylinositol 4,5-bisphosphate phosphodiesterase gamma-1 (Homo sapiens, UniProt P19174); assay: Counterscreen for inhibitors of phospholipase C isozymes (PLC-B3): Fluorescence-based biochemical high throughput dose response assay to identify inhibitors of phospholipase C isozymes (PLC-gamma1).
[19] = viability loss in HEK293 kidney cells – cell-based, cherry-picks, set 5, cytotoxicity control, dose response (AID 1053117); format: functional
[20] = viability loss in A549 lung cancer cells – cell-based, cherry-picks, […], cytotoxicity control, dose response (AID 1053119); format: functional
[21] = inhibitors of EBV LMP1 NF-kappaB signaling – cell-based, luciferase reporter, luminescence, dry powder, set 2, dose response (AID 624376); format: functional
[22] = OV-90 cell viability loss – plate reader, dry powder, SA8, PAX8 inhibitor project, dose response (AID 743149); format: functional, cell-based
[23] = COV434 cell viability loss – plate reader, dry powder, SA7, cytotoxicity control for PAX8 inhibitor project, dose response (AID 743145); format: functional, cell-based
[24] = PAX8-dependent cell viability loss – plate reader, dry powder, dose response (AID 743049); format: functional, cell-based
[25] = toxicity toward immortalized ovarian surface epithelium – cell-based, plate reader, dry powder samples, cytotoxicity control for PAX8 inhibitor project, dose response (AID 743045); format: functional
[26] = HEK293T viability loss – cell-based, ATP luminescence, dry powder, Set6, cytotoxicity control, dose response (AID 743142); format: functional; conditions: HEK293
[27] = target: Scavenger receptor class B member 1 (Mus musculus, UniProt Q61009); assay: blockers of DiI-HDL lipid transfer via SR-BI – cell-based, ldlA[mSR-BI] CHO, DiI fluorescence, dry powder, set 10, dose response (AID 624029); format: functional
HeLa = assay: viability loss in HeLa cells – cell-based, ATP luminescence, cherry-pick samples, cytotoxicity control, dose response (AID 687004); format: functional; conditions: Homo sapiens
Galanin receptor type 3 = Galanin receptor type 3 (Homo sapiens, UniProt O60755); assay: Fluorescence-based cell-based primary high throughput dose response assay to identify antagonists of the Galanin Receptor 3 (GalR3).; format: functional
cells [28] = format: functional, cell-based; conditions: HEK-CNG
HEK293 [29] = assay: cells; conditions: Homo sapiens
HEK293 [30] = assay: cells; conditions: Homo sapiens; remark: listed apart in the source
cells [31] = conditions: HEK293
[32] = IGROV1 cell killing – plate reader, dry powder samples, PAX8 inhibitor project, dose response (AID 743043); format: functional, cell-based; conditions: IGROV-1
[33] = PAX5 cellular inhibition readout – cell-based, plate reader, dry powder samples, selectivity assay for PAX8 inhibitor project, dose response (AID 743047); format: functional;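 note: HEK293 cells carrying a Pax5 driven CD19 promoter luciferase reporter; potency of inhibitors that lower reporter luminescence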
[34] = optical artefact potency, substrate without enzyme – biochemical, fluorescence intensity, triplicate, artefact control for kallikrein-7 zymogen activator project, dose response (AID 720493)
Kallikrein-7 = Kallikrein-7 (Homo sapiens, UniProt P49862); assay: Fluorescence Intensity-based biochemical primary high throughput dose response assay to identify activators of kallikrein-7 (K7) zymogen.
[35] = liver cell line viability loss – HepG2, luminescence plate reader, powder samples, set 2, cytotoxicity control, dose response (AID 651860); format: functional, cell-based
[36] = T. cruzi growth inhibition in host cells, dose response, cell-based, plate reader, dry powder, set 2 (AID 652275); format: functional
[37] = mouse embryonic fibroblast toxicity – cell-based, plate reader, dry powder, set 2, cytotoxicity control, dose response (AID 652280); format: functional; conditions: NIH3T3
[38] = target: COUP transcription factor 2 (Homo sapiens, UniProt P24468); assay: Luminescence-based cell-based high throughput dose response assay to identify inhibitors of COUP-TFII (NR2F2).; format: functional;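 note: HEK293 cells transiently cotransfected with COUP-TFII expression vector and reporter; luciferase reporter luminescence driven by COUP-TFII from the pX2-168 reporter plasmid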
[39] = reduced cellular PGC1a acetyl-lysine signal – cell-based, cherry-picked samples, dose response (AID 720514); format: functional;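 note: potency may reflect raised or lowered acetylation signal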
Albumin = Albumin (Bos taurus, UniProt P02769); assay: Counterscreen for inhibitors of T-cell receptor (TCR)-CD3 interaction: Fluorescence-based biochemical high throughput dose response assay to identify inhibitors of T-cell receptor (TCR)-CD3 interaction using a TAMRA-labeled BSA probe.; format: functional
Albumin, sequence (P02769 whole entry): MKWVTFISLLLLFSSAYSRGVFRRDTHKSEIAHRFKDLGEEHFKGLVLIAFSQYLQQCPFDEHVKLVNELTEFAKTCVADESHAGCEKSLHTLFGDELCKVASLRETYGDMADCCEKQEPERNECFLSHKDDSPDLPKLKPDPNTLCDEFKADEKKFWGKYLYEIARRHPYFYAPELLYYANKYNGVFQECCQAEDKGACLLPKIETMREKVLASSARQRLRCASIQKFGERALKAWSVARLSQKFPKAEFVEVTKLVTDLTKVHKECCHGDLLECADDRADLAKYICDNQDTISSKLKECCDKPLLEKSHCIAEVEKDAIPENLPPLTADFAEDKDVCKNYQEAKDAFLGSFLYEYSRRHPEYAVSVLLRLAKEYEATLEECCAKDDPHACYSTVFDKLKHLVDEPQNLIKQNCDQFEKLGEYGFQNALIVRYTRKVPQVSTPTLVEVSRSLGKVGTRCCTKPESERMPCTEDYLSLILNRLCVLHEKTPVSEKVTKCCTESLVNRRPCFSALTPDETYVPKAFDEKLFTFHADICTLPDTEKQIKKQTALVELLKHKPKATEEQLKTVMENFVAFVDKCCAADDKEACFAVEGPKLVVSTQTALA

Paired box protein Pax-8, sequence (Q06710 whole entry): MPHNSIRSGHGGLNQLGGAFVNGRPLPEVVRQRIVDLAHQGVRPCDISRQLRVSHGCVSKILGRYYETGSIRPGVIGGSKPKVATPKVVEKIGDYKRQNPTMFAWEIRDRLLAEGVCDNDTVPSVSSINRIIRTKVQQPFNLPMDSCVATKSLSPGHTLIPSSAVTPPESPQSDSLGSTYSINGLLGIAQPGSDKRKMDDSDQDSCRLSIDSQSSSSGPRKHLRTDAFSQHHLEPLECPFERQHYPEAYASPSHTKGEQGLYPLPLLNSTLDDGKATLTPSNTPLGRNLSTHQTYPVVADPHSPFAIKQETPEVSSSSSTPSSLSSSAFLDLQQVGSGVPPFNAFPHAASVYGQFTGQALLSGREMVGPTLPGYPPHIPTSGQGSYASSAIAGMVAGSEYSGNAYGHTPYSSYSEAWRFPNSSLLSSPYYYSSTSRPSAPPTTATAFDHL
1-phosphatidylinositol 4,5-bisphosphate phosphodiesterase beta-3, sequence (Q01970 whole entry): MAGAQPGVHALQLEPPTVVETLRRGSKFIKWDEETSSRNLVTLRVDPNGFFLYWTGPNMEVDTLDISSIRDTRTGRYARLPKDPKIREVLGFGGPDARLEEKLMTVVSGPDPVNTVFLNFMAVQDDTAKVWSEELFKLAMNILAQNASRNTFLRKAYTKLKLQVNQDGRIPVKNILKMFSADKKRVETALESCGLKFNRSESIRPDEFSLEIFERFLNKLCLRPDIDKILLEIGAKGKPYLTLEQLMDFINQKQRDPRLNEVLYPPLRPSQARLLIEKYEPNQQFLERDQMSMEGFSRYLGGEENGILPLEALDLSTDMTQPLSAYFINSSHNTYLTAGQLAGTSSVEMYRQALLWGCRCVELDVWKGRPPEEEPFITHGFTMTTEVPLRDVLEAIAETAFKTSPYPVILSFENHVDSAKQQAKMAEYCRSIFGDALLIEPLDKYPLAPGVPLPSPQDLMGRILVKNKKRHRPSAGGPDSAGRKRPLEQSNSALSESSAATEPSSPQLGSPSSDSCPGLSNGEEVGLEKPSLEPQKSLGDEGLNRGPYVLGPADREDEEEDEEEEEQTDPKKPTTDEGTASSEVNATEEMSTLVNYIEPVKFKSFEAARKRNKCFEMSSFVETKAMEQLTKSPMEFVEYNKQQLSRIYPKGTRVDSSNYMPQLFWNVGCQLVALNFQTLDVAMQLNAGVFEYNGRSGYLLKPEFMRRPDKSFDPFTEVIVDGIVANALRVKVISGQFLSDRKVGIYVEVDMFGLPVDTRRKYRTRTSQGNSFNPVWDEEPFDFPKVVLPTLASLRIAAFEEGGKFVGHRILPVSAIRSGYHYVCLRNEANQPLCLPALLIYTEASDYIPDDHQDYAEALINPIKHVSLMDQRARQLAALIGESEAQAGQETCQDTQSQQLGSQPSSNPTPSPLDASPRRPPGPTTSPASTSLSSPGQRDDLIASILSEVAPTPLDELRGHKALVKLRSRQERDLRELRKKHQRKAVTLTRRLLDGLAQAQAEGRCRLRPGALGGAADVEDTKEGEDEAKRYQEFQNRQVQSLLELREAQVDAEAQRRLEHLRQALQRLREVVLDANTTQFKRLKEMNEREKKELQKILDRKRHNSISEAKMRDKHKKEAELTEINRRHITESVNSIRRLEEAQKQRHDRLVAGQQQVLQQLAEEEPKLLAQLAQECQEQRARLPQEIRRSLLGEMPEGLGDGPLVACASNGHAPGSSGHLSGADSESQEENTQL
COUP transcription factor 2, sequence (P24468 whole entry): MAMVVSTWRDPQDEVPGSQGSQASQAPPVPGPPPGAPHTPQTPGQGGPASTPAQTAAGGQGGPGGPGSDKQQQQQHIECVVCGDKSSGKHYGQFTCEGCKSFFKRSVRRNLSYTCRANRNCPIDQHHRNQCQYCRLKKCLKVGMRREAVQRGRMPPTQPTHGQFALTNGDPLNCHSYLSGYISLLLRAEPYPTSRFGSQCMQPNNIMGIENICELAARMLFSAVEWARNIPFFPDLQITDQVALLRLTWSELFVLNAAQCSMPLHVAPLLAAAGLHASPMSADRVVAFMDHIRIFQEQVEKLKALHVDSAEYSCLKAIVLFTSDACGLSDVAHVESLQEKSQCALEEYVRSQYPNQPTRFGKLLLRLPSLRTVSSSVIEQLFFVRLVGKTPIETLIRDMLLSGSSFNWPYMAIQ
Kallikrein-7, sequence (P49862 whole entry): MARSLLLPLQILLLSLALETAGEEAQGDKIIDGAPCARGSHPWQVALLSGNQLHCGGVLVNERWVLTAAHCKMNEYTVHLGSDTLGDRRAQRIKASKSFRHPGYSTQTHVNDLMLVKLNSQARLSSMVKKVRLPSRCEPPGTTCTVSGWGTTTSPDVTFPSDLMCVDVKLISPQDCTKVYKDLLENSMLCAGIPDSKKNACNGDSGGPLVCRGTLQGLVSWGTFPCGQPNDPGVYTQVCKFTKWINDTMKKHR
Scavenger receptor class B member 1, sequence (Q61009 whole entry): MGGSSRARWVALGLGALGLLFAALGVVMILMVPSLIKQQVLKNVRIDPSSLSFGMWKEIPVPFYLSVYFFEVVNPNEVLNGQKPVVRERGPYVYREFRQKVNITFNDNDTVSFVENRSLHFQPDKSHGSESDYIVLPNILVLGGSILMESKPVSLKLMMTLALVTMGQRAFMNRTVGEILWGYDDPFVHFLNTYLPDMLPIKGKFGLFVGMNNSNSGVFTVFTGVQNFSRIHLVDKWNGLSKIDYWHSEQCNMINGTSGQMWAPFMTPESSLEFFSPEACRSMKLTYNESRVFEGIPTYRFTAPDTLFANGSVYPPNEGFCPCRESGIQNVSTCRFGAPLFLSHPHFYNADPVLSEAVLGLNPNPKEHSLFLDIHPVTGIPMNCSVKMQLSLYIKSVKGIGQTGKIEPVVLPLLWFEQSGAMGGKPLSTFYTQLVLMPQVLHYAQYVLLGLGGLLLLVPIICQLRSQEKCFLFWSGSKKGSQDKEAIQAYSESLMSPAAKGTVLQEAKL
NAD-dependent protein deacylase sirtuin-5, mitochondrial, sequence (Q9NXA8 whole entry): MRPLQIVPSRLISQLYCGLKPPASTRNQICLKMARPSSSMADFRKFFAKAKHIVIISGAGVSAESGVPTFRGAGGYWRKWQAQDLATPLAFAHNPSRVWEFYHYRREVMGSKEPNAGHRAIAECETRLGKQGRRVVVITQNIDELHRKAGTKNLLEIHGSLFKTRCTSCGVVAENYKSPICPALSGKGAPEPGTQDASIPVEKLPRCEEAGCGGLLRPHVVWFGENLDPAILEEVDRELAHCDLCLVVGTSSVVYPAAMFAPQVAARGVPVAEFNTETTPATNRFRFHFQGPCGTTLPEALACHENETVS
Galanin receptor type 3, sequence (O60755 whole entry): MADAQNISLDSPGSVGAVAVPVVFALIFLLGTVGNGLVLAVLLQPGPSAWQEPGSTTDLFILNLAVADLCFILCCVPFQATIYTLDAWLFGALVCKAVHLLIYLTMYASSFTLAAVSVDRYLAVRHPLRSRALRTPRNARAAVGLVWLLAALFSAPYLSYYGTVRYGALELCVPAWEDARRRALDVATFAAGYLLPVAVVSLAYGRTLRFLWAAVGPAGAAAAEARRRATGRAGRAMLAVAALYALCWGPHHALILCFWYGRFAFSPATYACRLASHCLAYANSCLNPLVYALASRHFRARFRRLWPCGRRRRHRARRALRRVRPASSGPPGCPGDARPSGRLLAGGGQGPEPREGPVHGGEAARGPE

## CC(C)N1C(=O)C2(OCCCO2)c2cc(Br)ccc21
HEK293 [1]
  AC50: 13 µM (active)
[2]
  AC50: 13 µM (active)

## C[C@@H]1CN([C@H](C)CO)C(=O)c2cc(NC(=O)Nc3ccc(F)cc3)ccc2O[C@@H](C)CCCCO[C@@H]1CN(C)Cc1ccc(C(F)(F)F)cc1
[3]
  AC50: 39.5 µM (active)
Paired box protein Pax-8
  AC50: 5.91 µM (active)
[4]
  AC50: 12.4 µM (active)
[5]
  AC50: 40.6 µM (active)

## C[C@@H]1CN([C@@H](C)CO)C(=O)c2cc(Br)cnc2O[C@H]1CN(C)Cc1cccnc1
[6]
  AC50: > 30 µM (inactive)

## Cc1cc(NC(=O)c2coc(=O)c(Br)c2)ccc1C(C)C
[7]
  IC50: 0.685 µM (active)
Vero
  CC50: > 25 µM (active)
[8]
  IC50: 8.9 µM (active)
[9]
  IC50: 18.8 µM (inactive)

## O=c1c2cc(N3CCOCC3)ccc2[nH]c(=S)n1Cc1ccc(Cl)cc1
[10]
  EC50: 4.66 µM (active)
[11]
  EC50: 2.96 µM (active)
H4
  EC50: 5.33 µM (active)
[12]
  EC50: 0.719 µM (active)
[13]
  EC50: 66.7 µM (active)
[14]
  AC50: > 52 µM (inactive)
[15]
  EC50: 5.35 µM (active)

## O=C(Cc1ccncc1)N1CCCCN2[C@H](CO)[C@@H](c3ccc(C#Cc4ccccc4F)cc3)[C@@H]2C1
[16]
  AC50: 24.8 µM (active)

## O=S(=O)(c1ccccc1)c1cnn(-c2ccccc2)c1-c1ccc(Cl)cc1
[17]
  IC50: > 122 µM (inactive)
[18]
  IC50: > 122 µM (inactive)

## CC(C)(C)[S@@+]([O-])N1Cc2cc(C(=O)NCc3ccccc3F)nc(-c3cccc(-c4ccncc4)c3)c2[C@H]1CCO
[19]
  AC50: > 52 µM (inactive)
[20]
  AC50: 32.2 µM (active)
[21]
  AbsAC35: 50.48 µM

## CC1(C)CC(=O)c2sc(NC(=O)CCS(=O)(=O)c3ccccc3)nc2C1
[22]
  AC50: 86.7 µM (active)
Paired box protein Pax-8
  AC50: 3.16 µM (active)
[23]
  AC50: 22.9 µM (active)
[24]
  AC50: 11.9 µM (active)
[25]
  AC50: 69.9 µM (active)

## O=C(CCNC(=O)c1ccc(F)cc1)N[C@@H]1CCCc2ccccc21
[26]
  AC50: 16.5 µM (active)

## CC(C)NC(=O)Nc1ccc2c(c1)C(=O)N([C@H](C)CO)C[C@@H](C)[C@@H](CN(C)S(=O)(=O)c1ccc(Cl)cc1)O2
[27]
  AC50: 39.9 µM (active)

## C[C@@H]1CN([C@@H](C)CO)C(=O)Cc2cc(NC(=O)Nc3cccc4ccccc34)ccc2O[C@@H]1CN(C)S(=O)(=O)c1cccs1
HeLa
  AC50: 32.3 µM (active)

## CCc1nc2sc(C#N)c(N)c2c2c1CCCC2
Galanin receptor type 3
  IC50: > 3.32 µM (active)
Cells [28]
  EC50: > 29.9 µM (inactive)
HEK293 [29]
  EC50: > 59.6 µM (inactive)
HEK293 [30]
  EC50: > 59.6 µM (inactive)

## CC(C)CCN(CCC(C)C)CC(O)Cn1c2ccccc2c(=O)c2ccccc21 (configuration not stated)
Cells [31]
  AC50: > 52 µM (inactive)

## O=C(C[C@@H]1CC[C@@H]2[C@H](COC[C@@H](O)CN2C(=O)Nc2ccc(C(F)(F)F)cc2)O1)NC1Cc2ccccc2C1
Paired box protein Pax-8
  AC50: 5.62 µM (active)
[32]
  AC50: 56.8 µM (active)

## N#C[C@@H]1[C@@H](c2ccc(-c3cccc(F)c3)cc2)[C@H](CO)N1C(=O)NC1CCCC1
[22]
  AC50: > 70 µM (inactive)
Paired box protein Pax-8
  AC50: 22.2 µM (active)
[23]
  AC50: 65.3 µM (active)
[24]
  AC50: 39.6 µM (active)
[33]
  AC50: 55.5 µM (active)

## Cc1ccc(C(=O)Nc2ccc(NC(=O)c3ccc(C)o3)cc2)o1
[34]
  EC50: > 7.72 µM (active)
Kallikrein-7
  EC50: 12.7 µM (inactive)

## O=C(O)C1CCCCC1C(=O)Nc1ccccc1CN1C(=O)c2ccccc2C1=O (configuration not stated)
[35]
  AC50: > 52 µM (inactive)

## CC(C)N1C[C@@H](C)[C@H](CN(C)Cc2ccc(Oc3ccccc3)cc2)Oc2c(C(=O)Nc3ccncc3)cccc2C1=O
[36]
  AC50: 40.5 nM (active) and 71.6 nM (active)
[37]
  AC50: 6.05 µM (active)

## Cc1cc(C)c(O)c(C(=O)CC2CC(=O)NC(=O)C2)c1
[38]
  IC50: 9.88 µM (active)

## O=C1CN(S(=O)(=O)Cc2ccccc2)C[C@@H]2[C@@H](c3ccc(C#Cc4cccc(F)c4)cc3)[C@@H](CO)N12
[39]
  AC50: 21.6 µM (active)

## O=C(NNC(=O)c1cc2ccccc2cc1O)Nc1ccc(F)cc1F
Albumin
  IC50: > 94.1 µM (inactive)
